Experimental findings from ChEMBL document CHEMBL5257035, “Nucleoside Derived Antibiotics to Fight Microbial Drug Resistance: New Utilities for an Established Class of Drugs?” (J Med Chem, 2016) are described below.

Test [1] has as its system Staphylococcus aureus. Nature of the test: Antimicrobial activity against methicillin-resistant Staphylococcus aureus 10925 assessed as reduction in microbial growth by broth microdilution method. The class given is functional.
Another test has as its target Proline--tRNA ligase (Escherichia coli, UniProt P16659). The test can be described thus: Binding affinity to Escherichia coli K12 Prolyl-tRNA synthetase.
In the next test the test system is Streptococcus pyogenes. The test can be described thus: Antimicrobial activity against Streptococcus pyogenes ATCC 12344 assessed as reduction in microbial growth by broth microdilution method. The class given is functional. For orientation: Broth dilution looks for growth in wells or tubes with falling amounts of substance.
The next test relates to Escherichia coli. Nature of the test: Antibacterial activity against Escherichia coli K12 assessed as bacterial growth inhibition by broth microdilution method. The class given is functional.
Test [2] has as its system Pseudomonas aeruginosa. Nature of the test: Antibacterial activity against Pseudomonas aeruginosa ATCC 27853 assessed as reduction in microbial growth by broth microdilution method. It is filed as functional.
In test [3] the test system is Mycobacterium tuberculosis. Nature of the test: Antimycobacterial activity against Mycobacterium tuberculosis H37Rv assessed as reduction in bacterial growth. The class given is functional.
In test [4] the test system is Pseudomonas aeruginosa. The test can be described thus: Antibacterial activity against Pseudomonas aeruginosa ATCC 27853 assessed as bacterial growth inhibition at 32 ug/ml measured after 16 hrs by broth microdilution method. It is filed as functional. To be noted: dose 32 µg/ml.
Test [5] deals with Candida albicans. The test can be described thus: Antifungal activity against Candida albicans SC5314 assessed as reduction in microbial growth inhibition incubated for 48 hrs by broth microdilution assay. The class given is functional.
The subject of test [6] is Candida albicans. The test can be described thus: […] activity against Candida albicans assessed as […] measured after 24 hrs by microtitre dilution method. It is filed as functional.
Test [7] relates to Staphylococcus chromogenes. The test can be described thus: Antibacterial activity against wild type Staphylococcus chromogenes 7100 assessed as bacterial growth inhibition. It is filed as functional.
Test [8] concerns Candida albicans. Nature of the test: Antifungal activity against Candida albicans B-311 assessed as reduction fungal growth incubated for 16 hrs by microbroth dilution method. The class given is functional.
Test [9] in a line: Inhibition of Candida albicans SC5314 chitin synthase using UDP-GlcNAc as substrate incubated for 1 hr.
In test [10] the test system is Candida albicans. The test can be described thus: Antifungal activity against Candida albicans assessed as inhibition of fungal growth. The class given is functional.
The test system of test [11] is Cutaneotrichosporon cutaneum. The test can be described thus: Antifungal activity against Trichosporon cutaneum 3071 assessed as reduction in microbial growth inhibition for 48 hrs by broth microdilution assay. The class given is functional.
Test [12] in a line: Inhibition of Bacillus stearothermophilus tyrosyl tRNA synthetase. More on the design: species or system Geobacillus stearothermophilus.
Test [13] concerns Mycolicibacterium smegmatis. Nature of the test: Antibacterial activity against Mycobacterium smegmatis ATCC 607 assessed as bacterial growth inhibition. It is filed as functional.
The target of test [14] is Phospho-N-acetylmuramoyl-pentapeptide-transferase (Staphylococcus aureus, UniProt P0C1R8). The test can be described thus: Inhibition of Staphylococcus aureus MraY.
A further test relates to Cryptococcus neoformans. The test can be described thus: Antifungal activity against Cryptococcus neoformans assessed as reduction in fungal growth. It is filed as functional.
The next test deals with Aspergillus niger. Nature of the test: Antifungal activity against Aspergillus niger MTCC 282 assessed as reduction in microbial growth measured after 48 hrs by broth dilution method. It is filed as functional.
Another test deals with Coccidioides immitis. The test can be described thus: Antifungal activity against Coccidioides immitis assessed as reduction in fungal growth. The class given is functional.
The subject of test [15] is Pseudomonas aeruginosa. Nature of the test: Antimicrobial activity against Pseudomonas aeruginosa ATCC 15692 assessed as microbial inhibition. The class given is functional, organism-based.
For the next test, the system named is Enterococcus faecalis. Nature of the test: Antimicrobial activity against Enterococcus faecalis ATCC 29212 assessed as microbial growth inhibition. The class given is functional, organism-based.
For test [16], the system named is Pseudomonas aeruginosa. Nature of the test: Antibacterial activity against Pseudomonas aeruginosa assessed as bacterial growth inhibition. The class given is functional.
Test [17] has as its system Pseudomonas aeruginosa. Nature of the test: Antibacterial activity against Pseudomonas aeruginosa infected in mouse. The class given is functional.
The next test relates to Mycobacterium kansasii. The test can be described thus: Antimycobacterial activity against Mycobacterium kansasii ATCC12478 assessed as microbial growth reduction. It is filed as functional.
Test [18] deals with Mycobacterium intracellulare. The test can be described thus: Antimycobacterial activity against Mycobacterium intracellulare ATCC1954 E-3 assessed as microbial growth reduction. The class given is functional.
Test [19] deals with Staphylococcus aureus. Nature of the test: Antibacterial activity against methicillin-resistant Staphylococcus aureus assessed as reduction in bacterial growth by broth dilution method. The class given is functional.
The target of test [20] is T1, Phospho-N-acetylmuramoyl-pentapeptide-transferase (Escherichia coli, UniProt E2QF15).
T1 sequence (E2QF15 whole entry): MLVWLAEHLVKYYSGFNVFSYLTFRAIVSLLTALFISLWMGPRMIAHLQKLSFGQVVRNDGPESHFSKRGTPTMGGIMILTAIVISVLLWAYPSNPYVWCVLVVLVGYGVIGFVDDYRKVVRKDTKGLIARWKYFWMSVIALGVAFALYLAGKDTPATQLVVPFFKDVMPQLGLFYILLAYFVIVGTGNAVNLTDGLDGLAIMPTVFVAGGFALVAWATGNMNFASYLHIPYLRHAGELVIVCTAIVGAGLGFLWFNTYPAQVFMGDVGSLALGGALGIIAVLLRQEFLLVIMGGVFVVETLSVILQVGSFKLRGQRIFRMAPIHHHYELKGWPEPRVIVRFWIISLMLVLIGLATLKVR
The test can be described thus: Inhibition of MraY in Escherichia coli.

The subject of test [21] is Candida albicans. Nature of the test: Antifungal activity against Candida albicans ATCC 10231 assessed as reduction in fungal growth incubated for 12 hrs by broth microdilution method. It is filed as functional.

Structures are written as SMILES. Values after ≈ are worked out from the molar mass of the structure shown. Where only a bound is given, the exact number is not on record here.

Proline--tRNA ligase, sequence (P16659 whole entry): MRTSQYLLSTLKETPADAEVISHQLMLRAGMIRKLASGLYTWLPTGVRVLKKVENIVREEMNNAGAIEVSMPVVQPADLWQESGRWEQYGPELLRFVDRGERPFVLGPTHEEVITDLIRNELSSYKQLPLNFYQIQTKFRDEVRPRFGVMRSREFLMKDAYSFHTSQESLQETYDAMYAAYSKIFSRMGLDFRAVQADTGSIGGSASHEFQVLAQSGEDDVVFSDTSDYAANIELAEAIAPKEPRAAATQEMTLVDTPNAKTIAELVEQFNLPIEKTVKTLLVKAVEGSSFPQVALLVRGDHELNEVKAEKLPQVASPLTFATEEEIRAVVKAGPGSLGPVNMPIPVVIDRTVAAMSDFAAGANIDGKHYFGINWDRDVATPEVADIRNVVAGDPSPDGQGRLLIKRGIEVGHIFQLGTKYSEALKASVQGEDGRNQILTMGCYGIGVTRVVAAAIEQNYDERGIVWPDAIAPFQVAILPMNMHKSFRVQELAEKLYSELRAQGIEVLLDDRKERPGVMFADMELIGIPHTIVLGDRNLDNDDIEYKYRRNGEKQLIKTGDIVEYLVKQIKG
Phospho-N-acetylmuramoyl-pentapeptide-transferase (Staphylococcus aureus, UniProt P0C1R8), sequence (P0C1R8 whole entry): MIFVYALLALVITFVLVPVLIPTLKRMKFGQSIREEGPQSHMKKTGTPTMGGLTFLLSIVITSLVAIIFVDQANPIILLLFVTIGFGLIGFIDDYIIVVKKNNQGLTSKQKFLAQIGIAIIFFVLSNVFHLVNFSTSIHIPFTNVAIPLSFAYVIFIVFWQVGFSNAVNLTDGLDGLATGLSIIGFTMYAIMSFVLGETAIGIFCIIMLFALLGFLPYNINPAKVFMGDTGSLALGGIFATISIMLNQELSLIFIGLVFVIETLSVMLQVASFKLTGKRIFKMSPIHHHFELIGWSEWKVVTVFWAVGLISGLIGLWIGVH

In the case of `Nc1ccn([C@@H]2O[C@H](CO)[C@@H](O)C2(F)F)c(=O)n1` [GEMCITABINE], in the test on Staphylococcus aureus [1], the MIC (usually the lowest concentration found to suppress growth) came out at 0.002 µg/mL.

On to `Nc1ncnc2c1ncn2[C@@H]1O[C@H](COS(=O)(=O)NC(=O)[C@@H]2CCCN2)[C@@H](O)[C@H]1O`, for which the Ki (in general, a dissociation constant, usually derived from enzyme kinetics or from competition with a known ligand) at Proline--tRNA ligase worked out at 4.3 nM.

With `O=c1[nH]c(=O)n([C@H]2C[C@H](O)[C@@H](CO)O2)cc1F` [FLOXURIDINE], the MIC with Streptococcus pyogenes is 0.003 µg/mL.

Take `Cc1cn([C@H]2C[C@H](N=[N+]=[N-])[C@@H](CO)O2)c(=O)[nH]c1=O` [ZIDOVUDINE]: the MIC in the test on Escherichia coli stood at 10 µg/mL (≈ 37.4 µM).

`CN(C[C@H](NC(=O)[C@H](CC[S+](C)[O-])NC(=O)N[C@@H](Cc1c[nH]c2ccccc12)C(=O)O)C(=O)N/C=C1/C[C@@H](O)[C@H](n2ccc(=O)[nH]c2=O)O1)C(=O)[C@@H](N)Cc1cccc(O)c1` (some centres undefined): the MIC is 8 µg/mL with Pseudomonas aeruginosa [2] and 8 µg/mL (≈ 9.24 µM) in test [3].

Regarding `CCCCCCCCCCCCCCCCC(=O)NC(CCCCCCCCCCCCCCC)C(=O)[C@H](NCCCC(=O)NCCCCNC(=N)N)[C@H](O[C@@H]1O[C@H](CN)[C@@H](O)[C@H]1O)[C@H]1O[C@@H](n2ccc(=O)[nH]c2=O)[C@H](O)[C@@H]1O` (some centres undefined), the MIC with Pseudomonas aeruginosa [4] worked out at 4 µg/mL (≈ 3.56 µM).

With `C[C@@H]([C@H](N)C(=O)N[C@H](C(=O)O)[C@H]1OC(n2cc(C=O)nc2O)[C@H](O)[C@@H]1O)[C@H](O)c1ccc(O)cn1` (some centres undefined) [NIKKOMYCIN X], the MIC turned out to be 16 µg/mL in the test with Candida albicans [5]; 0.5 µg/mL (≈ 1.01 µM) with Candida albicans [6]; 2 µg/mL (≈ 4.04 µM) in test [7]; 2.5 µg/mL (≈ 5.05 µM) with Candida albicans [8]; 2 µg/mL (≈ 4.04 µM) in the test on Candida albicans [10]; 64 µg/mL in [11]. The IC50 (usually the concentration needed to halve the response being measured) in test [9] was 0.1 µg/mL (≈ 0.202 µM).

In turn, `Nc1ncnc2c1ncn2[C@@H]1O[C@H](COP(=O)(O)OCC(N)Cc2ccc(O)cc2)[C@@H](O)[C@H]1O` (some centres undefined) yielded a Ki in test [12] of 11 nM.

With `CO[C@H]1[C@@H](O)[C@H](n2ccc(=O)[nH]c2=O)O[C@@H]1[C@@H](O[C@@H]1OC(C(=O)N[C@H]2CCC[C@@H](C)NC2=O)=C[C@@H](O)[C@H]1O)C(N)=O`, in test [13], the MIC was 6.25 µg/mL (≈ 10.7 µM). This molecule also registered an IC50 in test [14] of 17 nM.

`CC(C)C[C@H](N)C(=O)N[C@H](C(=O)O)[C@@H]1C[C@@H](O)[C@@H](O)[C@H](n2ccc(=O)[nH]c2=O)O1`: the MIC in the test with Cryptococcus neoformans was determined as 0.25 µg/mL (≈ 0.603 µM); in the test on Aspergillus niger it was 0.03 µg/mL; in the test with Coccidioides immitis it was 0.25 µg/mL (≈ 0.603 µM).

As for `CCCC(C)CC(C)CC(C)/C=C(C)/C=C/C(O)C(C)C(=O)OC1C(O)CN2CC1NC[C@H]1O[C@@H](OC([C@H]3O[C@@H](n4ccc(=O)[nH]c4=O)[C@H](O)[C@@H]3OS(=O)(=O)O)C2C(=O)O)[C@H](O)[C@@H]1O` (some centres undefined), the results for the IC50 in the test on Pseudomonas aeruginosa [15] and in the test on Enterococcus faecalis were 0.065 µg/mL (≈ 0.0697 µM) and 0.012 µg/mL (≈ 0.0129 µM), respectively.

Consider `CSCC[C@H](NC(=O)NC(Cc1cccc(O)c1)C(=O)O)C(=O)NC(CN(C)C(=O)[C@@H](N)C(N)Cc1cccc(O)c1)C(=O)N/C=C1/C[C@@H](O)[C@H](N2CCC(=O)NC2=O)O1` (some centres undefined), for which, in the test with Pseudomonas aeruginosa [16], the MIC is 1.5 µg/mL (≈ 1.75 µM). Besides, in the test on Pseudomonas aeruginosa [17], the ED50 (usually the dose at which the effect has come halfway, by size or by number of responders) is more than 0.1 mg/kg.

In the case of `CO[C@H]1[C@@H](O)[C@H](n2ccc(=O)[nH]c2=O)O[C@@H]1[C@@H](O[C@@H]1OC(C(=O)Nc2ccc(F)c(F)c2)=C[C@@H](O)[C@H]1O)C(N)=O`, the MIC (in the test on Mycobacterium kansasii; in test [18]) was 0.5 µg/mL (≈ 0.876 µM) each time.

With `NC[C@H]1O[C@@H](O[C@@H](Cn2cc(CCCCCCCCOc3ccc(C(=O)c4ccccc4)cc3)nn2)[C@H]2O[C@@H](n3ccc(=O)[nH]c3=O)[C@H](O)[C@@H]2O)[C@H](O)[C@@H]1O`, the minimal inhibitory concentration (MIC) in the test with Staphylococcus aureus [19] came to 8 µg/mL (≈ 10.5 µM). The same molecule came in with an IC50 in test [20] of 8000 nM.

Turning to `CC1(C)O[C@@H]2[C@H](O1)[C@@H](Cn1cc(COc3ccccc3)nn1)O[C@H]2n1ccc(=O)[nH]c1=O`, the MIC with Candida albicans [21] is 8 µg/mL (≈ 18.1 µM).
